Assay results reported in US8263821B2, “Non-invasive real-time in vivo bioluminescence imaging of local CaÂ2+ dynamics in living organisms” (priority 2004, dated 2012).

Key:
[1] = tested on: Ca2+ oscillations in somatosensory cortex slices; assay: Mitochondrial Ca2+ oscillations (bioluminescence) in organotypic cortical slices from mtGA transgenic mice; type: cell-based, mouse; conditions: D-APV 50 μM; slices from P4 mtGA mice, 4-5 days in culture
cortical neurons = assay: Single-cell Ca2+ induced bioluminescence in cortical neurons transfected with GA; type: cell-based; conditions: GA reconstituted with h coelenterazine
Protocol: Cultures were plated on to glass-bottomed dishes and mounted to a stage adapter on a fully automated inverted microscope mounted in a black-box. GFP-Aequorin was reconstituted with 2.5-5 μM coelenterazine for 30 minutes at 37° C. Incubation of cells with coelenterazine that had been transfected with SynGA was undertaken at room temperature to reduce the consumption of the photoprotein during the reconstitution process. Cells were perfused with tyrodes buffer. Prior to bath application of NMDA, cells were perfused for 1 minute without Mg^2+. All recordings were made at room temperature (22-25° C.). […]
The fluorescence/bioluminescence wide field microscopy system was custom built by ScienceWares, Inc. The system includes a fully automated inverted microscope (200M, Zeiss Germany) and is housed in a light-tight dark box. […] Low level light emission (photon rate <100 kHz), was collected using an Image Photon Detector (IPD 3, Photek Ltd.) connected to the baseport of the microscope, which assigns an X, Y coordinate and time point for each detected photon (Miller et al., 1994). The system is fully controlled by the data acquisition software, which also converts single photon events into an image that can be superimposed with brightfield or fluorescence images made by a connected CCD camera to the C-port (Coolsnap HQ, Roper Scientific). […]

N[C@H](CCCP(=O)(O)O)C(=O)O [D-APV]
block of Ca2+ oscillations generated by removal of Mg2+ from the buffer [1]: completely and reversibly blocked

[Cl-].[K+] [KCl]
Ca2+ induced bioluminescence signal after stimulation (cortical neurons; KCl 90 mM): robust signal

CN[C@H](CC(=O)O)C(=O)O [NMDA]
Ca2+ induced bioluminescence signal after stimulation (cortical neurons; NMDA 100 μM): robust signal
